In publication PMC2191575 (The Journal of Experimental Medicine, 1994):

System: chimeric human/mouse MHC class II molecules
Type: binding

Substance: influenza nucleoprotein (383-395): DR-restricted synthetic peptide (SRYWAIRTRSGGN)
- binding to chimeric MHC class II molecules: Specific binding was also observed
